This passage reports IC50 and Kd results from patent publication US20250368666A1, “INDAZOLE COMPOUNDS” (TYRA BIOSCIENCES, INC., priority 2022, published 2025).

SMILES strings stand for the structures.

Assay [1] has as its system KATO-III cell line (FGFR2 amplification). Nature of the assay: Cancer cell line cell viability assay (Cell Titer-Glo), 72 hr. It is filed as cell-based. Particulars: Homo sapiens, KATO III. A digest of the protocol:
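Following overnight attachment, each line receives compound in triplicate across nine 4-fold dilutions starting at 3 μM, with DMSO backfill for equal solvent. Luminescence after Cell Titer-Glo 2.0 addition gives percent viability versus DMSO control, fitted by 4-parameter logistic for IC50.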
On the technique in general: Cellular ATP, detected with luciferase, serves as a proxy for viable cell number.

The subject of assay [2] is RT112/84 cell line (FGFR3-fusion). Described as above. It is filed as cell-based. Particulars: Homo sapiens, RT112/84, RT112/84 cell line (FGFR3-fusion). An outline of the steps: (§1)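 5,000-20,000 cells/well o/n; cpd 9-pt 4x dil from 3 μM, n=3; 37° C/5% CO2; CTG 2.0 lumi; % DMSO ctrl; 4PL IC50.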
Assay [3] relates to KG-1 cell line (FGFR 1-fusion). Described as above. The class given is cell-based. Particulars: Homo sapiens, KG-1, KG-1 cell line (FGFR1-fusion). An outline of the steps:
as §1

Assay [4] deals with MDA-MB-453 cell line (FGFR4-Y367C). Nature of the assay: Cancer cell line cell viability assay (Cell Titer-Glo), 120 hr. The class given is cell-based. Particulars: Homo sapiens. An outline of the steps:
as §1

The next assay concerns the target T1, FGFR2 (Homo sapiens, UniProt P21802).
T1 construct: made in house; host or cells: E. coli (BL21-derived), T7 phage
Nature of the assay: Kinase binding assay (kinase-tagged T7 phage, affinity beads, qPCR), Kd. Particulars: read-out: FGFR2 (Kd nM). A digest of the protocol: (§2)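 T7 phage displaying each kinase, grown in a BL21-derived E. coli host at 32° C until lysis, competed with test compound for biotinylated ligand immobilised on streptavidin beads. Bead-bound kinase was eluted and quantified by qPCR. Kd came from an 11-point 3-fold dilution series fitted to the Hill equation with slope fixed at −1.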
Background: Real-time PCR tracks product formation cycle by cycle.

For another assay, the target named is T2, FGFR3 (Homo sapiens, UniProt P22607).
T2 construct: made in house; host or cells: E. coli (BL21-derived), T7 phage
T2 sequence (P22607 23-806): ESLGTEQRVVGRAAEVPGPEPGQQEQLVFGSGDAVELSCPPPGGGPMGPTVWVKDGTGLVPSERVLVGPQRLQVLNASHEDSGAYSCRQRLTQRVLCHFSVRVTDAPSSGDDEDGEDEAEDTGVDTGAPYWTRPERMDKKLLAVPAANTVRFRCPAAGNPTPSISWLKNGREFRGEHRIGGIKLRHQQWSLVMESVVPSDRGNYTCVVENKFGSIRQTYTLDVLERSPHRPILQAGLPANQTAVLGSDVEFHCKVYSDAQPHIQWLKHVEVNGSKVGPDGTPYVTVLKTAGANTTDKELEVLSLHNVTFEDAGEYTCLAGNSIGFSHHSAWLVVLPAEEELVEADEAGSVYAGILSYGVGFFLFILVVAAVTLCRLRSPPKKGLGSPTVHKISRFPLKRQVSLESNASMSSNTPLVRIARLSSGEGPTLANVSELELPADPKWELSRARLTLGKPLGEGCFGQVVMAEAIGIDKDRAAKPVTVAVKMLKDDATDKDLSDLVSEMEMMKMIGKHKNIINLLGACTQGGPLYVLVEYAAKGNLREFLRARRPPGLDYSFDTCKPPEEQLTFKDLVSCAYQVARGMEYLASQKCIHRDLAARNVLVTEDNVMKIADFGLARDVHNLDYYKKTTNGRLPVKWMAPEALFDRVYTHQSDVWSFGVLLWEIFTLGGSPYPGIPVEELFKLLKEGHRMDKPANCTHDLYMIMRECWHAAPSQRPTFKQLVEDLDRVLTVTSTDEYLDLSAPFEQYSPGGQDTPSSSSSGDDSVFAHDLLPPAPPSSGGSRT
Described as above. Particulars: read-out: FGFR3 (Kd nM). A digest of the protocol:
as §2

In a further assay the target is T3, FGFR1 (Homo sapiens, UniProt P11362).
T3 construct: made in house; host or cells: E. coli (BL21-derived), T7 phage
T3 sequence (P11362 22-822): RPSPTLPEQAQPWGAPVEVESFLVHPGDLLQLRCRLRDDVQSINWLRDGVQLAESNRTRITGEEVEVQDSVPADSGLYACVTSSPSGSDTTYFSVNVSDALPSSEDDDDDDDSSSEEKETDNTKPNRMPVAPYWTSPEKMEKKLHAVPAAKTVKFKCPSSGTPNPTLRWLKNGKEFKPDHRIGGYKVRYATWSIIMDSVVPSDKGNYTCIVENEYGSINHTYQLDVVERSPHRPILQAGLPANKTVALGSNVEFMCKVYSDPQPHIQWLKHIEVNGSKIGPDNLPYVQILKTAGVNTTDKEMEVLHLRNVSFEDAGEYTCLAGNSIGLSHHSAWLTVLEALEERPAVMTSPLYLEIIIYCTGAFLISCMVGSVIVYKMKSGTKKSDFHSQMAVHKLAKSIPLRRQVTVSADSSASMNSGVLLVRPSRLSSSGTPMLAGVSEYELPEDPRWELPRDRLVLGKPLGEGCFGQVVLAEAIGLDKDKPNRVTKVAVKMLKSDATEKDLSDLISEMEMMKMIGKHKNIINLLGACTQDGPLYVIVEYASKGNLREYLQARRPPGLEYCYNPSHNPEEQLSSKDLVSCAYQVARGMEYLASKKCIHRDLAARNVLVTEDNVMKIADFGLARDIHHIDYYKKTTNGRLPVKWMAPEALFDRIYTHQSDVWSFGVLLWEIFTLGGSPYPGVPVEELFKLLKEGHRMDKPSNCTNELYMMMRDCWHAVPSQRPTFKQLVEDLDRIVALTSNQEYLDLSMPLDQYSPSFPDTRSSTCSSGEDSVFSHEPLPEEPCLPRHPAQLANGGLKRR
The description is as above. Particulars: read-out: FGFR1 (Kd nM). An outline of the steps: as §2

The target in a further assay is T4, FGFR3 (V555M) (Homo sapiens, UniProt P22607, V555M).
T4 construct: made in house; host or cells: E. coli (BL21-derived), T7 phage
T4 sequence (P22607 23-806 V555M): as the sequence (P22607 23-806) above, with V533M counted along it
The description is as above. Particulars: V555M mutant; read-out: FGFR3 (V555M) (Kd nM). An outline of the steps: as §2

The next assay deals with T5, FGFR4 (Homo sapiens, UniProt P22455).
T5 construct: made in house; host or cells: E. coli (BL21-derived), T7 phage
T5 sequence (P22455 22-802): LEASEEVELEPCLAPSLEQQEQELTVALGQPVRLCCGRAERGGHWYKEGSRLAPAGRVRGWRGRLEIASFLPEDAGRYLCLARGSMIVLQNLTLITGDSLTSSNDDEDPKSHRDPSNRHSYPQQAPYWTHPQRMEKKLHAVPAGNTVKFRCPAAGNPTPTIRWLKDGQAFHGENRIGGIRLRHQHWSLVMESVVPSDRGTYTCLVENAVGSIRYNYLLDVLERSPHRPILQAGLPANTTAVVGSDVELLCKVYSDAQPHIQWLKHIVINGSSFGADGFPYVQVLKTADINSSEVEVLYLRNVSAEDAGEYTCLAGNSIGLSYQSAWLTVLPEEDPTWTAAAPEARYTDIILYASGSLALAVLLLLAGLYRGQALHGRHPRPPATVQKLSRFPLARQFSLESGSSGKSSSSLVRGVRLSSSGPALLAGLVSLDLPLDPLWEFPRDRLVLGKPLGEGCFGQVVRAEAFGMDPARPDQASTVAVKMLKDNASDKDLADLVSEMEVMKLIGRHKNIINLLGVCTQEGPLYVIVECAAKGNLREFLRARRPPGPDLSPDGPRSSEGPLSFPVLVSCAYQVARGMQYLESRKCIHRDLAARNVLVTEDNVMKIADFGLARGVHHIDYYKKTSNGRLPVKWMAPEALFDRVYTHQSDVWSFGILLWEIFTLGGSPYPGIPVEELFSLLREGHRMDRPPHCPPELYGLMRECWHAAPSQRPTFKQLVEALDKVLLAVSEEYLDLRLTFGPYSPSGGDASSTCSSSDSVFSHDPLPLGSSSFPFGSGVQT
The description is as above. Particulars: read-out: FGFR4 (Kd nM). A digest of the protocol: as §2

T1 sequence (P21802 22-821): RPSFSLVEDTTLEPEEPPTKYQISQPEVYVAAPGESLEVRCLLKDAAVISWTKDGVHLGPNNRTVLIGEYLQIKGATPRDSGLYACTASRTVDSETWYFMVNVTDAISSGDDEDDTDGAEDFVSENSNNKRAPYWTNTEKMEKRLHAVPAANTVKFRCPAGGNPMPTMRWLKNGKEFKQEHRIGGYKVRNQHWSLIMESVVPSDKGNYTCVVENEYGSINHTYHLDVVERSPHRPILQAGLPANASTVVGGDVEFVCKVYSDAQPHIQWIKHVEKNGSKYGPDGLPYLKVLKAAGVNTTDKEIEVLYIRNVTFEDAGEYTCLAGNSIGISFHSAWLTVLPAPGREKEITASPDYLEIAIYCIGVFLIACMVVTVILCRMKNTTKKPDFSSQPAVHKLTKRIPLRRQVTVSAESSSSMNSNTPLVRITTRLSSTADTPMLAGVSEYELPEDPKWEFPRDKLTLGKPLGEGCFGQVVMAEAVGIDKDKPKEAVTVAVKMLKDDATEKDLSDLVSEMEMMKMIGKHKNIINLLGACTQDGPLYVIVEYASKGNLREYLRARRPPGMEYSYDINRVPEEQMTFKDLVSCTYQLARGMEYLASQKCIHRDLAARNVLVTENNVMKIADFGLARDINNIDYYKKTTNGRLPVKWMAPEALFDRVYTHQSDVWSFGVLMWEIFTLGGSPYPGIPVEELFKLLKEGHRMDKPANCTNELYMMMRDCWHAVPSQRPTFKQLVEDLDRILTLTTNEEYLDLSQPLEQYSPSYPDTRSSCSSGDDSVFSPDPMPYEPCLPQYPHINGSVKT

Take `C[C@@H](Oc1ccc2[nH]nc(-c3cnc(N4CC(C)(NC(=O)CN(C)C)C4)c(F)c3)c2c1)c1c(Cl)cncc1Cl` (stereo in doubt) [Example 156, N-(1-(5-(5-(1-(3,5-dichloropyridin-4-yl)ethoxy)-1H-indazol-3-yl)-3-fluoropyridin-2-yl)-3-methylazetidin-3-yl)-2-(dimethylamino)-acetamide]: the IC50 (in general, the concentration needed to halve the response being measured) was 0.1 to 50 nM in assay [1], 0.1 to 50 nM in [2], 50 to 200 nM in assay [3] and 50 to 200 nM in assay [4]. Moreover, the Kd on FGFR2, at FGFR3, on FGFR1, at FGFR3 (V555M) and on FGFR4 was 1 to 50 nM in each case.

For the molecule `CNC1(C)CN(c2ccc(-c3n[nH]c4ccc(O[C@H](C)c5c(Cl)cnc(C)c5Cl)cc34)cn2)C1` [Example 76, 1-[5-[5-[(1R)-1-(3,5-dichloro-2-methyl-4-pyridyl)ethoxy]-1H-indazol-3-yl]-2-pyridyl]-N,3-dimethyl-azetidin-3-amine], the concentration for half-maximal inhibition (IC50) was 50 to 200 nM in [1], 0.1 to 50 nM in assay [2], 50 to 200 nM in [3] and 200 to 1000 nM in assay [4]. Moreover, the Kd at FGFR2, at FGFR3, on FGFR1, on FGFR3 (V555M) and on FGFR4 was 1 to 50 nM throughout.

As for `Cc1ncc(Cl)c([C@@H](C)Oc2ccc3[nH]nc(-c4ccc(N5CC(C)(N6CCOCC6)C5)nc4)c3c2)c1Cl` [Example 77, 4-[1-[5-[5-[(1R)-1-(3,5-dichloro-2-methyl-4-pyridyl)ethoxy]-1H-indazol-3-yl]-2-pyridyl]-3-methyl-azetidin-3-yl]morpholine], the IC50 in assay [1] was in the range of 50 to 200 nM; in assay [2], 0.1 to 50 nM; in assay [3], 200 to 1000 nM; in assay [4], 200 to 1000 nM. Further, the Kd at FGFR2, on FGFR3, on FGFR1, on FGFR3 (V555M) and on FGFR4 was 1 to 50 nM throughout.

`Cc1ncc(Cl)c([C@@H](C)Oc2ccc3[nH]nc(-c4ccc(N5CC(C)(N(C)C)C5)nc4)c3c2)c1Cl` [Example 78, 1-[5-[5-[(1R)-1-(3,5-dichloro-2-methyl-4-pyridyl)ethoxy]-1H-indazol-3-yl]-2-pyridyl]-N,N,3-trimethyl-azetidin-3-amine]: the 50% inhibitory concentration (IC50) in assay [1] was in the range of 50 to 200 nM; in assay [2] it was 0.1 to 50 nM; in assay [3] it was 200 to 1000 nM; in assay [4], 200 to 1000 nM. The dissociation constant (Kd) on FGFR2, at FGFR3, at FGFR1, on FGFR3 (V555M) and at FGFR4 was 1 to 50 nM throughout.

For `COc1cc2[nH]nc(-c3ccc(N4CC(C)(NCCO)C4)nc3)c2cc1O[C@H](C)c1c(Cl)cncc1Cl` [Example 83, (R)-2-((1-(5-(5-(1-(3,5-dichloropyridin-4-yl)ethoxy)-6-methoxy-1H-indazol-3-yl)pyridin-2-yl)-3-methylazetidin-3-yl)amino)ethan-1-ol], the IC50 in assay [1] is 0.1 to 50 nM; in [2], 0.1 to 50 nM; in assay [3], 50 to 200 nM; in assay [4], 0.1 to 50 nM. Also, the Kd on FGFR2, at FGFR3, at FGFR1, at FGFR3 (V555M) and at FGFR4 was 1 to 50 nM throughout.

For the molecule `C[C@@H](Oc1ccc2[nH]nc(-c3cnc(N4CC(C)(NCC5CC5)C4)c(F)c3)c2c1)c1c(Cl)cncc1Cl` [Example 106, (R)-N-(cyclopropylmethyl)-1-(5-(5-(1-(3,5-dichloropyridin-4-yl)ethoxy)-1H-indazol-3-yl)-3-fluoropyridin-2-yl)-3-methylazetidin-3-amine], the IC50 lay within 50 to 200 nM in assay [1], 0.1 to 50 nM in [2], 50 to 200 nM in assay [3] and 50 to 200 nM in assay [4]. Also, the Kd at FGFR2, at FGFR3, on FGFR1, on FGFR3 (V555M) and at FGFR4 was 1 to 50 nM throughout.

Consider `C[C@@H](Oc1ccc2[nH]nc(-c3cnc(N4CC(N)(c5cnn(C)c5)C4)c(F)c3)c2c1)c1c(Cl)cncc1Cl` [Example 277, (R)-1-(5-(5-(1-(3,5-dichloropyridin-4-yl)ethoxy)-1H-indazol-3-yl)-3-fluoropyridin-2-yl)-3-(1-methyl-1H-pyrazol-4-yl)azetidin-3-amine], for which the IC50 fell in the range of 0.1 to 50 nM in [1], 0.1 to 50 nM in assay [2], 50 to 200 nM in assay [3] and 0.1 to 50 nM in [4]. In addition, the Kd on FGFR3 and at FGFR1 was 1 to 50 nM in each case.

For `C[C@@H](Oc1ccc2[nH]nc(-c3ccc(N4CC(N)(Cc5ccnn5C)C4)nn3)c2c1)c1c(Cl)cncc1Cl` [Example 281, (R)-1-(6-(5-(1-(3,5-dichloropyridin-4-yl)ethoxy)-1H-indazol-3-yl)pyridazin-3-yl)-3-((1-methyl-1H-pyrazol-5-yl)methyl)azetidin-3-amine], the IC50 fell in the range of 0.1 to 50 nM in assay [1], 0.1 to 50 nM in assay [2], 50 to 200 nM in assay [3] and 200 to 1000 nM in [4]. Also, the Kd on FGFR3 and at FGFR1 was 1 to 50 nM in each case.

For the molecule `C[C@@H](Oc1ccc2[nH]nc(-c3cnc(N4CC(N)(Cc5ccn(C)n5)C4)c(F)c3)c2c1)c1c(Cl)cncc1Cl` [Example 282, (R)-1-(5-(5-(1-(3,5-dichloropyridin-4-yl)ethoxy)-1H-indazol-3-yl)-3-fluoropyridin-2-yl)-3-((1-methyl-1H-pyrazol-3-yl)methyl)azetidin-3-amine], the concentration for half-maximal inhibition (IC50) in assay [1] is 50 to 200 nM; in assay [2], 0.1 to 50 nM; in [3], 50 to 200 nM; in assay [4], 50 to 200 nM. In addition, the Kd at FGFR3 and at FGFR1 was 1 to 50 nM in each case.

For `C[C@@H](Oc1ccc2[nH]nc(-c3cnc(N4CC(N)(Cc5ccnn5C)C4)c(F)c3)c2c1)c1c(Cl)cncc1Cl` [Example 283, (R)-1-(5-(5-(1-(3,5-dichloropyridin-4-yl)ethoxy)-1H-indazol-3-yl)-3-fluoropyridin-2-yl)-3-((1-methyl-1H-pyrazol-5-yl)methyl)azetidin-3-amine], the 50% inhibitory concentration (IC50) in [1], in [2], in assay [3] and in assay [4] was 0.1 to 50 nM throughout. Also, the Kd on FGFR3 and at FGFR1 was 1 to 50 nM in each case.

For the molecule `C[C@@H](Oc1ccc2[nH]nc(-c3cnc(N4CC(N)(CCF)C4)c(F)c3)c2c1)c1c(Cl)cncc1Cl` [Example 284, (R)-1-(5-(5-(1-(3,5-dichloropyridin-4-yl)ethoxy)-1H-indazol-3-yl)-3-fluoropyridin-2-yl)-3-(2-fluoroethyl)azetidin-3-amine], the IC50 in [1] is 0.1 to 50 nM; in assay [2] it was 0.1 to 50 nM; in [3], 50 to 200 nM; in assay [4], 0.1 to 50 nM. In addition, the Kd at FGFR3 and on FGFR1 was 1 to 50 nM each time.

Turning to `C[C@@H](Oc1ccc2[nH]nc(-c3ccc(N4CC(N)(CCC#N)C4)nn3)c2c1)c1c(Cl)cncc1Cl` [Example 285, (R)-3-(3-amino-1-(6-(5-(1-(3,5-dichloropyridin-4-yl)ethoxy)-1H-indazol-3-yl)pyridazin-3-yl)azetidin-3-yl)propanenitrile], the IC50 in assay [1] was in the range of 0.1 to 50 nM; in assay [2] it was 0.1 to 50 nM; in assay [3], 0.1 to 50 nM; in assay [4], 200 to 1000 nM. In addition, the Kd on FGFR3 and at FGFR1 was 1 to 50 nM throughout.

Take `C[C@@H](Oc1ccc2[nH]nc(-c3ccc(N4CC(N)(Cc5cnn(C)c5)C4)nn3)c2c1)c1c(Cl)cncc1Cl` [Example 289, (R)-1-(6-(5-(1-(3,5-dichloropyridin-4-yl)ethoxy)-1H-indazol-3-yl)pyridazin-3-yl)-3-((1-methyl-1H-pyrazol-4-yl)methyl)azetidin-3-amine]: the 50% inhibitory concentration (IC50) in assay [1] lay in the range of 50 to 200 nM; in assay [2], 0.1 to 50 nM; in assay [3], 200 to 1000 nM; in assay [4], 200 to 1000 nM. For the same molecule, the Kd at FGFR3 and at FGFR1 was 1 to 50 nM in each case.

`C[C@@H](Oc1ccc2[nH]nc(-c3cnc(N4CC(N)(Cc5cnn(C)c5)C4)c(F)c3)c2c1)c1c(Cl)cncc1Cl` [Example 290, (R)-1-(5-(5-(1-(3,5-dichloropyridin-4-yl)ethoxy)-1H-indazol-3-yl)-3-fluoropyridin-2-yl)-3-((1-methyl-1H-pyrazol-4-yl)methyl)azetidin-3-amine]: the IC50 in assay [1] lay in the range of 50 to 200 nM; in [2] it was 0.1 to 50 nM; in assay [3], 50 to 200 nM; in assay [4] it was 50 to 200 nM. The Kd at FGFR3 and at FGFR1 was 1 to 50 nM in each case.
